Test results: patent US20240207211A1, “COMPOSITION FOR PROMOTING BONE FORMATION OR TREATING BONE DISEASE BY ACTING ON OSTEOBLAST MITOCHONDRIA” (SEOUL NATIONAL UNIVERSITY R&DB FOUNDATION, priority 2021, published 2024)

Experiments:
Type in all cases: cell-based, mouse
[1] = tested on: osteoblast mitochondria; experiment: Osteoblast fluorescence imaging of mitochondrial morphology (fission, donut-shaped mitochondria); details: osteoblasts, 5 days differentiation, siRNA 30 nM, plasmid 1 μg/mL, bongkrekic acid 40 μM; for formation of donut-shaped mitochondria (confocal images, FIGS. 1A to 1C) / mitochondrial fission (confocal images, FIGS. 1A to 1C): versus control; for mitochondrial fission (quantitative analysis, Zeiss Zen 3.1, FIGS. 1D and 1E) / number of donut-shaped mitochondria (quantitative analysis, FIGS. 1D and 1E): versus respective control
Method: To confirm changes in the morphology of osteoblast mitochondria, transgenic mice were prepared to express green fluorescent protein (GFP) specifically in the mitochondrial matrix. Specifically, lgs1^CKI-mitoGFP/CKI-mitoGFP knock-in C57BL/6 female mice were provided by Jeremy Nathans (Johns Hopkins University School of Medicine, MD), Col1a1-Cre male mice were provided by the Korea Research Institute of Bioscience and Biotechnology, and Col1a1-Cre was prepared to be expressed in these mice using the 2.3 kb murine Col1a1 promoter. By mating the prepared C57BL/6 female transgenic mouse with the Col1a1-Cre male mouse, newborn transgenic mice (Col1a1-Cre; Igs1^CKI-mito-GFP/+) that conditionally express GFP only in the mitochondria of osteoblasts were prepared. All animal studies were approved by the Seoul National University Institutional Animal Care and Use Committees.
The skull cells of the prepared transgenic mice that express GFP conditionally only in the mitochondria were treated with 0.25% trypsin (Gibco) for 10 minutes, incubated in 2 mg/mL type 2 collagenase (Worthington) for 30 minutes, and in fresh type 2 collagenase for another 60 minutes. The cells separated from the bone tissue were collected by centrifugation at 1300 rpm for 3 minutes, and the cells were placed on serum and centrifuged to remove debris. To separate living osteoblasts that express GFP in mitochondria, they were stained with 7AAD (Bio-Legend) for 10 minutes (only dead cells were stained) and a flow cytometry technique (Fluorescence-activated cell sorting, FACS) was used.
The osteoblasts extracted in Example 1 were induced to be differentiated in a medium composed of alpha MEM (Minimum Essential Media, Hyclone) supplemented with 10% fetal bovine serum (Gibco) and 100 U/mL penicillin-streptomycin (Gibco) for 5 days. Specifically, the differentiation medium is composed of alpha MEM with 50 μg/mL ascorbic acid (Amreasco), 5 mM beta-glycerophosphate (Sigma), 10% fetal bovine serum (Gibco), and 100 U/mL penicillin-streptomycin (Gibco). Osteoblast differentiation was induced for 5 days.
Short interfering RNA (siRNA) that inhibits the expression of the Opa1 (dynamin-like 120 kDa protein) gene, which induces mitochondrial fusion, and the Fis1 (Mitochondrial fission 1 protein) gene, which induces mitochondrial fission (siOpa1, siFis1, respectively) was transfected into 300,000 osteoblasts per 1 mL at 30 nM each at the same time as differentiation induction using Lipofectamine RNAiMAX Reagent (Invitrogen), and to increase mitochondrial fission, the pCMV-Fis1 plasmid (Korea Human Gene Bank) was transfected into 300,000 osteoblasts per mL at 1 μg/mL at the same time as differentiation induction using TransIT®-LT1 Transfection Reagent (Mirus) to overexpress the Fis1 gene. In addition, the osteoblasts prepared above were treated simultaneously with differentiation with Tris solution-based bongkrekic acid (Sigma, B6179, USA) at a concentration of 40 μM. As a control for the siRNA, osteoblasts were prepared by transfecting the control siRNA in substantially the same manner as the siRNA; as a control for the plasmid, osteoblasts were prepared by transfecting the pCMV-SPORT6 empty vector plasmid into which no gene was inserted in substantially the same manner as the pCMV-Fis1 plasmid; and as a control for the bongkrekic acid, osteoblasts treated with 0.01M Tris solution were prepared. The siRNAs were purchased from Bioneer, Korea and transfected using Lipofectamine RNAimax (Invitrogen, USA) according to the manufacturer's instructions, and specific information on the siRNAs is shown in Table 1 below.
The pCMV-Fis1 plasmid containing full-length mouse Fis1 cDNA (ID: mMU002771) was purchased from the Korea Human Gene Bank, and was transfected into osteoblasts using TransIT-LT1 transfection reagent (Mirus Bio, USA) according to the manufacturer's instructions. […]

[2] = tested on: osteoblasts; experiment: Alkaline phosphatase (ALP) staining of differentiation-induced osteoblasts; details: 5 days differentiation, siRNA 30 nM, plasmid 1 μg/mL, bongkrekic acid 40 μM, versus respective control
Method: (§1) The osteoblasts extracted in Example 1 were transfected with 30 nM of siOpa1, siFis1, and 1 μg/mL of pCMV-Fis1 plasmids, respectively, in substantially the same manner as in Example 2-1, and separate osteoblasts were treated with 40 μM bongkrekic acid, and additionally, the osteoblasts extracted in Example 1 were transfected with 30 nM siBax, which is an siRNA of Bax (Bcl-2-associated X), and 1 μg/mL pCMV-Bax plasmid (Korea Human Gene Bank, ID: mMU001857), respectively, and differentiation of the osteoblasts was induced for 5 days in a medium consisting of alpha MEM (Minimum Essential Media, Hyclone) supplemented with 10% fetal bovine serum (Gibco) and 100 U/mL of penicillin-streptomycin (Gibco) of Example 2-1. As a control for the siRNA, osteoblasts were prepared by transfecting the control siRNA of Example 2-1 in substantially the same manner as the siRNA; as a control for the plasmid, osteoblasts were prepared by transfecting the pCMV-SPORT6 empty vector plasmid into which no gene was inserted in substantially the same manner as the pCMV-Fis1 plasmid; and as a control for the bongkrekic acid, osteoblasts treated with 0.01M Tris solution were prepared.
To confirm the osteogenic activity of the osteoblasts differentiation-induced in Example 3-1, staining of alkaline phosphatase (ALP), an osteogenic marker, was performed and observed. Specifically, 1 mg of Naphthol AS-MX phosphate (Sigma) was dissolved in 100 μL of N,N-dimethylformamide (Sigma), then 2 mL of 0.1% Fast blue BB salt (Sigma) solution was added and ALP staining was performed at 37° C. for 30 minutes. Osteogenic activity was confirmed by the intensity of staining, and it was evaluated that the darker the staining, the higher the expression of ALP.

[3] = tested on: Alp1; experiment: qRT-PCR of osteogenic marker Alp1 in osteoblasts; details: 5 days differentiation, siRNA 30 nM, plasmid 1 μg/mL, bongkrekic acid 40 μM, normalized to 18S rRNA, versus respective control
Method: as §1
(§2) qRT-PCR was performed to evaluate the gene expression level of the osteoblasts that underwent ALP staining in Example 3-2. Total RNA was extracted from the cells using QIAzol Lysis Reagent (Qiagen, Germany) and RNeasy Mini Kit (Qiagen, Germany), and cDNA was prepared using PrimeScript RT Reagent Kit (Takara, Japan) according to the manufacturer's instructions. Quantitative RT-PCR was performed using TB Green Premix Ex Taq II (Takara, Japan) and StepOnePlus Real-Time PCR system (Applied Biosystems, USA). Relative gene expression was determined using standard 2(−ΔΔCt) calculations with normalization to 18S rRNA, and information on the primers used is specifically shown in Table 3 below.

[4] = tested on: Ibsp; experiment: qRT-PCR of osteogenic marker Ibsp in osteoblasts; details: 5 days differentiation, siRNA 30 nM, plasmid 1 μg/mL, bongkrekic acid 40 μM, normalized to 18S rRNA, versus respective control
Method: as §1, §2

Molecule | formation of donut-shaped mitochondria (confocal images, FIGS. 1A to 1C) [1] | mitochondrial fission (confocal images, FIGS. 1A to 1C) [1] | mitochondrial fission (quantitative analysis, Zeiss Zen 3.1, FIGS. 1D and 1E) [1] | number of donut-shaped mitochondria (quantitative analysis, FIGS. 1D and 1E) [1] | degree of ALP staining (osteogenic activity) [2] | expression of Alp1 (qRT-PCR) [3] | expression of Ibsp (qRT-PCR) [4]
siOpa1: siRNA inhibiting expression of the Opa1 gene; Bioneer ID 74143-1, SEQ ID NO 1 and 2 (chain 1 GUGUUCACAACGAAACCAAUU; chain 2 UUGGUUUCGUUGUGAACACUU; chemistry not given here) | increased compared to the control | increased compared to the control | significantly increased | significantly increased | stronger compared to the respective controls | significantly increased | significantly increased
CO[C@H](C/C=C\C=C\CC/C=C/C[C@H](C)/C=C/C(=C\C(=O)O)CC(=O)O)/C(C)=C\C=C(/C)C(=O)O [bongkrekic acid] | increased compared to the control | increased compared to the control | significantly increased | significantly increased | stronger compared to the respective controls | significantly increased | significantly increased
siFis1: siRNA inhibiting expression of the Fis1 gene; Bioneer ID 66437-1, SEQ ID NO 3 and 4 (chain 1 CUGAUUGAUAAGGCCAUGAUU; chain 2 UCAUGGCCUUAUCAAUCAGUU; chemistry not given here) | significantly reduced compared to the control | significantly reduced compared to the control | significantly reduced | significantly reduced | weaker compared to the respective controls | significantly decreased | significantly decreased
siBax: siRNA of Bax (Bcl-2-associated X); Bioneer ID 12028-1, SEQ ID NO 5 and 6 (chain 1 GCUGCAGAGGAUGAUUGCUTT; chain 2 AGCAAUCAUCCUCUGCAGCTT; chemistry not given here) | – | – | – | – | weaker compared to the respective controls | – | –
